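Cultured in 96-well plates, cells were exposed to test compound for 48 hours across five concentrations. TGI denotes the concentration required for complete inhibition of growth.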

For four compounds, TGI results are on record in PubChem BioAssay (NCI).

One assay relates to RXF 393 renal. Description: NCI anticancer screen, dose series, 48 h.
`N=Nc1c(OC(=O)Nc2cccc(Cl)c2)[nH]c2ccccc12` returned a TGI of 26.1 µM.

The next assay has as its system SF-539 CNS. Description: NCI anticancer screen, dose series, 48 h.
`COC1=CC(=O)C(C2CC(=O)c3c(O)cc(O)cc3O2)=CC1=O` (centres undefined): the TGI was found to be 39.5 µM.
Same read-out and setting: then `N=C(N)SCc1ccc2c(c1)Sc1ccccc1O2`, with 7.79 µM; and `N#CC(C#N)=CNC(N)=S`, with > 100 µM; and `N=Nc1c(OC(=O)Nc2cccc(Cl)c2)[nH]c2ccccc12`, with 32.6 µM.

In another assay the test system is UACC-62 melanoma. Description: NCI anticancer screen, dose series, 48 h.
In the case of `COC1=CC(=O)C(C2CC(=O)c3c(O)cc(O)cc3O2)=CC1=O` (centres undefined), the TGI was determined as 31.3 µM.
`N=C(N)SCc1ccc2c(c1)Sc1ccccc1O2` yielded a TGI of 19.7 µM.
As for `N#CC(C#N)=CNC(N)=S`, the TGI is > 100 µM.
On to `N=Nc1c(OC(=O)Nc2cccc(Cl)c2)[nH]c2ccccc12`, for which the TGI is 21.1 µM.

A further assay relates to U251 CNS. Description: NCI anticancer screen, dose series, 48 h.
Consider `COC1=CC(=O)C(C2CC(=O)c3c(O)cc(O)cc3O2)=CC1=O` (centres undefined), for which the TGI worked out at 37.1 µM.
Same read-out and setting: as for `N=C(N)SCc1ccc2c(c1)Sc1ccccc1O2`, the figure is > 71.4 µM.
On the same count and under the same terms, as for `N#CC(C#N)=CNC(N)=S`, the figure is > 100 µM; as for `N=Nc1c(OC(=O)Nc2cccc(Cl)c2)[nH]c2ccccc12`, 18.9 µM.

For a further assay, the system named is SK-OV-3 ovarian. Description: NCI anticancer screen, dose series, 48 h.
As for `COC1=CC(=O)C(C2CC(=O)c3c(O)cc(O)cc3O2)=CC1=O` (centres undefined), the TGI was > 93.9 µM.
Still for that read-out and setting: as for `N=C(N)SCc1ccc2c(c1)Sc1ccccc1O2`, the figure is 27 µM; as for `N#CC(C#N)=CNC(N)=S`, > 100 µM; as for `N=Nc1c(OC(=O)Nc2cccc(Cl)c2)[nH]c2ccccc12`, 21.2 µM.

A further assay relates to SK-MEL-2 melanoma. Description: NCI anticancer screen, dose series, 48 h.
On to `COC1=CC(=O)C(C2CC(=O)c3c(O)cc(O)cc3O2)=CC1=O` (centres undefined), for which the TGI was 34.4 µM.
`N=C(N)SCc1ccc2c(c1)Sc1ccccc1O2` came in with a TGI of 15.6 µM.
Still for that read-out and setting: then `N#CC(C#N)=CNC(N)=S`, with > 100 µM; and `N=Nc1c(OC(=O)Nc2cccc(Cl)c2)[nH]c2ccccc12`, with 24.4 µM.

For the next assay, the system named is M14 melanoma. Description: NCI anticancer screen, dose series, 48 h.
With `COC1=CC(=O)C(C2CC(=O)c3c(O)cc(O)cc3O2)=CC1=O` (centres undefined), the TGI amounted to 35.1 µM.
`N=C(N)SCc1ccc2c(c1)Sc1ccccc1O2` registered a TGI of 7.55 µM.
On the same count and under the same terms, as for `N#CC(C#N)=CNC(N)=S`, the figure is > 100 µM.
As to `N=Nc1c(OC(=O)Nc2cccc(Cl)c2)[nH]c2ccccc12`, the TGI came out at 18.6 µM.

Another assay deals with NCI-H23 lung. Description: NCI anticancer screen, dose series, 48 h.
Turning to `COC1=CC(=O)C(C2CC(=O)c3c(O)cc(O)cc3O2)=CC1=O` (centres undefined), the TGI worked out at 40.5 µM.
Still for that read-out and setting: as for `N=C(N)SCc1ccc2c(c1)Sc1ccccc1O2`, the figure is 21.5 µM.
Consider `N#CC(C#N)=CNC(N)=S`, for which the TGI is > 100 µM.
On the same count and under the same terms, then `N=Nc1c(OC(=O)Nc2cccc(Cl)c2)[nH]c2ccccc12`, with 12.1 µM.

The next assay has as its system OVCAR-4 ovarian. Description: NCI anticancer screen, dose series, 48 h.
`COC1=CC(=O)C(C2CC(=O)c3c(O)cc(O)cc3O2)=CC1=O` (centres undefined) came in with a TGI of 36.5 µM.
On the same count and under the same terms, as for `N=C(N)SCc1ccc2c(c1)Sc1ccccc1O2`, the figure is 18.1 µM; as for `N#CC(C#N)=CNC(N)=S`, > 100 µM; as for `N=Nc1c(OC(=O)Nc2cccc(Cl)c2)[nH]c2ccccc12`, 19.6 µM.

For another assay, the system named is HCT-15 colon. As to the kind of experiment: NCI anticancer screen, dose series, 48 h.
As to `COC1=CC(=O)C(C2CC(=O)c3c(O)cc(O)cc3O2)=CC1=O` (centres undefined), the TGI is 55.3 µM.
As to `N=C(N)SCc1ccc2c(c1)Sc1ccccc1O2`, the TGI stood at 21.7 µM.
Same read-out and setting: as for `N#CC(C#N)=CNC(N)=S`, the figure is > 100 µM.
The same measure, in the same setting: then `N=Nc1c(OC(=O)Nc2cccc(Cl)c2)[nH]c2ccccc12`, with 18.9 µM.

The subject of a further assay is K-562 leukemia. As to the kind of experiment: NCI anticancer screen, dose series, 48 h.
Regarding `COC1=CC(=O)C(C2CC(=O)c3c(O)cc(O)cc3O2)=CC1=O` (centres undefined), the TGI worked out at 40.8 µM.
For `N=C(N)SCc1ccc2c(c1)Sc1ccccc1O2`, the TGI was > 100 µM.
As for `N#CC(C#N)=CNC(N)=S`, the TGI was > 100 µM.
Same read-out and setting: then `N=Nc1c(OC(=O)Nc2cccc(Cl)c2)[nH]c2ccccc12`, with > 52.8 µM.

The next assay deals with CAKI-1 renal. Description: NCI anticancer screen, dose series, 48 h.
`COC1=CC(=O)C(C2CC(=O)c3c(O)cc(O)cc3O2)=CC1=O` (centres undefined) came in with a TGI of 33.1 µM.
On the same count and under the same terms, as for `N=C(N)SCc1ccc2c(c1)Sc1ccccc1O2`, the figure is 19.7 µM; as for `N#CC(C#N)=CNC(N)=S`, > 100 µM; as for `N=Nc1c(OC(=O)Nc2cccc(Cl)c2)[nH]c2ccccc12`, 15.2 µM.

In a further assay the test system is SW-620 colon. As to the kind of experiment: NCI anticancer screen, dose series, 48 h.
`COC1=CC(=O)C(C2CC(=O)c3c(O)cc(O)cc3O2)=CC1=O` (centres undefined) registered a TGI of 44.4 µM.
Still for that read-out and setting: as for `N=C(N)SCc1ccc2c(c1)Sc1ccccc1O2`, the figure is 34 µM.
Regarding `N#CC(C#N)=CNC(N)=S`, the TGI is > 100 µM.
`N=Nc1c(OC(=O)Nc2cccc(Cl)c2)[nH]c2ccccc12` registered a TGI of 24.6 µM.

For another assay, the system named is MOLT-4 leukemia. Description: NCI anticancer screen, dose series, 48 h.
`COC1=CC(=O)C(C2CC(=O)c3c(O)cc(O)cc3O2)=CC1=O` (centres undefined) displayed a TGI of 5.12 µM.
`N=C(N)SCc1ccc2c(c1)Sc1ccccc1O2`: the TGI is > 93.3 µM.
On the same count and under the same terms, as for `N#CC(C#N)=CNC(N)=S`, the figure is > 100 µM; as for `N=Nc1c(OC(=O)Nc2cccc(Cl)c2)[nH]c2ccccc12`, 25.8 µM.

Another assay concerns HOP-62 NSCLC. Description: NCI anticancer screen, dose series, 48 h.
`COC1=CC(=O)C(C2CC(=O)c3c(O)cc(O)cc3O2)=CC1=O` (centres undefined) registered a TGI of 34.8 µM.
On the same count and under the same terms, as for `N=C(N)SCc1ccc2c(c1)Sc1ccccc1O2`, the figure is 34.1 µM; as for `N#CC(C#N)=CNC(N)=S`, > 100 µM; as for `N=Nc1c(OC(=O)Nc2cccc(Cl)c2)[nH]c2ccccc12`, 13.1 µM.

Another assay concerns EKVX NSCLC. Description: NCI anticancer screen, dose series, 48 h.
In turn, `COC1=CC(=O)C(C2CC(=O)c3c(O)cc(O)cc3O2)=CC1=O` (centres undefined) came in with a TGI of 30.8 µM.
Compound `N=C(N)SCc1ccc2c(c1)Sc1ccccc1O2` gave a TGI of 27 µM.
